Laboratory results from patent publication EP0428132A1, “Pradimicin derivatives” (Bristol-Myers Squibb Company, priority 1989, dated 1991).
In brackets after ≈: the same amount, converted by molar mass.

What was measured:
[1] = test system: FA21436; assay: In vitro antifungal activity, serial agar dilution method (Table 1); assay type: cell-based, Asoergukkys flavus; conditions: for MIC: 40 h, pH 7, read-out: MIC, Asoergukkys flavus FA21436; for Partial Inhibition, Asoergukkys flavus FA21436: value in parentheses = Partial Inhibition, Sabouraud dextrose agar (pH 7.0), 28°C for 40 hours
Protocol: (§1) The inoculum size was adjusted to 10⁶ cells/ml, and a volume of approximately 0.003 ml of fungal suspension was applied to the surface of the antibiotic containing agar plates with a multiinoculator. After incubation, the lowest concentration of antibiotic causing virtually complete inhibition of fungal growth was determined as the minimum inhibitory concentration (MIC). Table 1. [table]

[2] = physchem
Protocol: The sample (3 ∼ 3.5 mg) was suspended in 1 ml of PBS(-) or PBS(+), sonicated at 30°C for 10 minutes, and allowed to stand at room temperature for 2 hours. The resulting solution or suspension was centrifuged at 12,000 rpm for 10 minutes. The supernatant (pH 6.7 ∼ 7.2) was diluted (5 x or 50 x) with 0.01N NaOH (pH ca. 11.5) and its UV absorption at 500 nm was measured. The solubility was assessed by the absorption coefficient value with reference to the standard. […] The zwitterionic form sample was used for the solubility test as it is. The hydrochloride salt sample (3 mg) was dissolved in 3 ml of distilled water and neutralized with 0.01N NaOH, and then the solution was lyophilized to give a test sample.
Dulbecco's phosphate buffered saline (PBS) solution was used. Preparation of PBS(-) solution: One PBS(-) tablet (Flow Laboratories, Cat. No. 28-103-05) was dissolved in 100 ml distilled water, and the solution was autoclaved for 10 minutes at 115°C. This solution contains 0.2 g/L of KCl, 0.2 g/L of KH₂PO₄, 8 g/L of NaCl, and 1.15 g/L of Na₂HPO₄. Preparation of PBS(+) solution: One PBS(-) tablet was dissolved in 80 ml distilled water; 10 mg of CaCl₂ was dissolved in 10 ml distilled water; 10 mg of MgCl₂, 6H₂O was dissolved in 10 ml distilled water. These solutions were separately autoclaved, as described above, and mixed when cooled.

[3] = test system: Candida albicans A9540; assay: Intravenous Candida albicans infection mouse model, Table 2 part A; assay type: in vivo; conditions: drug administered once just after infection, 20 days after fungal challenge, method of Litchfield and Wilcoxon, male ICR mice
Protocol: Several compounds were also evaluated in an intravenous Candida albicans […] infection mouse model. The test organism was suspended in saline approximately 10 times the median lethal dose of the fungus (10⁶ cells/mouse) were used to infect intravenously male ICR mice weighing 20 to 24 g. Groups of five mice at each dose level were given the test compounds intravenously or intramuscularly. The 50% protective dose (PD₅₀) was calculated from survival rates recorded 20 or 21 days after the fungal challenge. Control animals died between 7 to 15 days.

[4] = test system: Cryptococcus neoformans D49; assay: In vitro antifungal activity, serial agar dilution method (Table 1); assay type: cell-based; conditions: Cryptococcus neoformans, D49, 40 h, pH 7, read-out: MIC, Cryptococcus neoformans D49
Protocol: as §1

[5] = test system: Fusarium moniliforme A2284; assay: as above; assay type: cell-based; conditions: Fusarium verticillioides, A2284; Sabouraud dextrose agar (pH 7.0); 28°C for 40 hours
Protocol: as §1

[6] = test system: Mucor spinosus IFO5317; assay: as above; assay type: cell-based; conditions: Sabouraud dextrose agar (pH 7.0), 28°C for 40 hours; for MIC: Mucor spinosus, IFO5317; for Partial Inhibition, Mucor spinosus IFO5317: value in parentheses = Partial Inhibition
Protocol: as §1

[7] = test system: Trichophyton mentagrophytes #4329; assay: as above; assay type: cell-based; conditions: Sabouraud dextrose agar (pH 7.0), 28°C for 40 hours; for MIC: Trichophyton mentagrophytes
Protocol: as §1

[8] = test system: Candida albicans A9540; assay: as above; assay type: cell-based; conditions: Sabouraud dextrose agar (pH 7.0), 28°C for 40 hours; for MIC: Candida albicans, A9540
Protocol: as §1

[9] = test system: Sprotricosis schenckii IFO8158; assay: as above; assay type: cell-based; conditions: for MIC: 40 h, pH 7, read-out: MIC, Sprotricosis schenckii IFO8158; for Partial Inhibition, Sprotricosis schenckii IFO8158: value in parentheses = Partial Inhibition, Sabouraud dextrose agar (pH 7.0), 28°C for 40 hours
Protocol: as §1

[10] = test system: Candida albicans IAM4888; assay: as above; assay type: cell-based; conditions: Sabouraud dextrose agar (pH 7.0), 28°C for 40 hours; for MIC: Candida albicans, IAM4888
Protocol: as §1

[11] = test system: Cryptococcus neoformans IAM4514; assay: as above; assay type: cell-based; conditions: Cryptococcus neoformans, IAM4514; Sabouraud dextrose agar (pH 7.0); 28°C for 40 hours
Protocol: as §1

[12] = test system: Petriellidium boydii IFO8078; assay: as above; assay type: cell-based; conditions: Scedosporium boydii, IFO8078; Sabouraud dextrose agar (pH 7.0); 28°C for 40 hours
Protocol: as §1

[13] = test system: Aspergillus fumigatus IAM2530; assay: as above; assay type: cell-based; conditions: Sabouraud dextrose agar (pH 7.0), 28°C for 40 hours; for MIC: Aspergillus fumigatus, IAM2530
Protocol: as §1

[14] = test system: Blastomyces dermatidis D40; assay: as above; assay type: cell-based; conditions: for MIC: Blastomyces, D40, 40 h, pH 7, read-out: MIC, Blastomyces dermatidis D40; for Partial Inhibition, Blastomyces dermatidis D40: value in parentheses = Partial Inhibition, Sabouraud dextrose agar (pH 7.0), 28°C for 40 hours
Protocol: as §1

[15] = test system: Aspergillus fumigatus IAM2034; assay: as above; assay type: cell-based; conditions: Sabouraud dextrose agar (pH 7.0), 28°C for 40 hours; for MIC: Aspergillus fumigatus, IAM2034; for Partial Inhibition, Aspergillus fumigatus IAM2034: value in parentheses = Partial Inhibition
Protocol: as §1

[16] = test system: Trichophyton mentagrophytes D155; assay: as above; assay type: cell-based; conditions: Trichophyton mentagrophytes, D155; Sabouraud dextrose agar (pH 7.0); 28°C for 40 hours
Protocol: as §1

[17] = value in parentheses = Partial Inhibition

Compound	MIC [1]	Partial Inhibition, Asoergukkys flavus FA21436 [1]	solubility at 2 h ([2]; Method II (-): PBS(-))	PD₅₀ [3]	MIC [4]	MIC [5]	MIC [6]	MIC [7]	MIC [8]	MIC [9]	MIC [10]	MIC [11]	MIC [12]	MIC [13]	MIC [14]	MIC [15]	MIC [16]	solubility at 2 h ([2]; Method II (+): PBS(+))	Partial Inhibition, Mucor spinosus IFO5317 [6]	Partial Inhibition, Sprotricosis schenckii IFO8158 [9]	also measured
COc1cc(O)c2c(c1)C(=O)c1c(cc3c(c1O)-c1c(cc(C)c(C(=O)N[C@H](C)C(=O)O)c1O)[C@H](O[C@@H]1O[C@H](C)[C@H](NCS(=O)(=O)O)[C@H](O[C@@H]4OC[C@@H](O)[C@H](O)[C@H]4O)[C@H]1O)[C@H]3O)C2=O [Ex. 7, N-(sodiosulfomethyl) pradimicin C]	> 50 µg/mL	3.1 µg/mL	0.003 mg/mL (≈ 3.26 µM)	7.2 mg/kg	0.4 µg/mL (≈ 0.434 µM)	> 50 µg/mL	> 50 µg/mL	25 µg/mL (≈ 27.1 µM)	3.1 µg/mL (≈ 3.37 µM)	1.6 µg/mL (≈ 1.74 µM)	3.1 µg/mL (≈ 3.37 µM)	0.4 µg/mL (≈ 0.434 µM)	> 50 µg/mL	3.1 µg/mL (≈ 3.37 µM)	3.1 µg/mL (≈ 3.37 µM)	> 50 µg/mL	50 µg/mL (≈ 54.3 µM)	–	–	–	Partial Inhibition, Trichophyton mentagrophytes #4329 [7, 17]: 3.1 µg/mL
COc1cc(O)c2c(c1)C(=O)c1c(cc3c(c1O)-c1c(cc(C)c(C(=O)N[C@H](C)C(=O)O)c1O)[C@H](O[C@@H]1O[C@H](C)[C@H](N(C)C=O)[C@H](O[C@@H]4OC[C@@H](O)[C@H](O)[C@H]4O)[C@H]1O)[C@H]3O)C2=O [Ex. 9, N-formyl pradimicin A]	> 100 µg/mL	–	–	>50 mg/kg	25 µg/mL (≈ 28.8 µM)	> 100 µg/mL	> 100 µg/mL	25 µg/mL (≈ 28.8 µM)	25 µg/mL (≈ 28.8 µM)	50 µg/mL (≈ 57.6 µM)	25 µg/mL (≈ 28.8 µM)	12.5 µg/mL (≈ 14.4 µM)	–	50 µg/mL (≈ 57.6 µM)	100 µg/mL (≈ 115 µM)	50 µg/mL (≈ 57.6 µM)	25 µg/mL (≈ 28.8 µM)	> 32 mg/mL	50.0 µg/mL	–	–
COc1cc(O)c2c(c1)C(=O)c1c(cc3c(c1O)-c1c(cc(C)c(C(=O)N[C@H](C)C(=O)O)c1O)[C@H](O[C@@H]1O[C@H](C)[C@H](N(C)CC(=O)O)[C@H](O[C@@H]4OC[C@@H](O)[C@H](O)[C@H]4O)[C@H]1O)[C@H]3O)C2=O [Ex. 1, N-(carboxymethyl) pradimicin A]	> 100 µg/mL	–	> 30 mg/mL	45 mg/kg	25 µg/mL (≈ 27.8 µM)	> 100 µg/mL	> 100 µg/mL	> 100 µg/mL	50 µg/mL (≈ 55.6 µM)	> 100 µg/mL	50 µg/mL (≈ 55.6 µM)	12.5 µg/mL (≈ 13.9 µM)	> 100 µg/mL	100 µg/mL (≈ 111 µM)	> 100 µg/mL	> 100 µg/mL	> 100 µg/mL	> 31 mg/mL	>100.0 (100.0) µg/ml	50.0 µg/mL	Partial Inhibition, Blastomyces dermatidis D40 [14]: 50.0 µg/mL; Partial Inhibition, Aspergillus fumigatus IAM2034 [15]: 50.0 µg/mL
COc1cc(O)c2c(c1)C(=O)c1c(cc3c(c1O)-c1c(cc(C)c(C(=O)N[C@H](C)C(=O)O)c1O)[C@H](O[C@@H]1O[C@H](C)[C@H](N(C)C(=O)CCN)[C@H](O[C@@H]4OC[C@@H](O)[C@H](O)[C@H]4O)[C@H]1O)[C@H]3O)C2=O [Ex. 11, N-(β-alanyl) pradimicin A]	> 100 µg/mL	>100.0 (100.0) µg/ml	–	36 mg/kg	1.6 µg/mL (≈ 1.75 µM)	> 100 µg/mL	> 100 µg/mL	100 µg/mL (≈ 110 µM)	12.5 µg/mL (≈ 13.7 µM)	6.3 µg/mL (≈ 6.91 µM)	12.5 µg/mL (≈ 13.7 µM)	1.6 µg/mL (≈ 1.75 µM)	> 100 µg/mL	50 µg/mL (≈ 54.8 µM)	12.5 µg/mL (≈ 13.7 µM)	100 µg/mL (≈ 110 µM)	100 µg/mL (≈ 110 µM)	0.25 mg/mL (≈ 274 µM)	25.0 µg/mL	–	Partial Inhibition, Candida albicans A9540 [8, 17]: 6.3 µg/mL; Partial Inhibition, Candida albicans IAM4888 [10, 17]: 6.3 µg/mL
COc1cc(O)c2c(c1)C(=O)c1c(cc3c(c1O)-c1c(cc(C)c(C(=O)N[C@H](C)C(=O)O)c1O)[C@H](O[C@@H]1O[C@H](C)[C@H](N(C)CC(N)=O)[C@H](O[C@@H]4OC[C@@H](O)[C@H](O)[C@H]4O)[C@H]1O)[C@H]3O)C2=O [Ex. 2, N-(carbamoylmethyl) pradimicin A]	> 100 µg/mL	50.0 µg/mL	11 mg/mL (≈ 12300 µM)	29 mg/kg	12.5 µg/mL (≈ 13.9 µM)	> 100 µg/mL	> 100 µg/mL	> 100 µg/mL	50 µg/mL (≈ 55.7 µM)	25 µg/mL (≈ 27.8 µM)	25 µg/mL (≈ 27.8 µM)	3.1 µg/mL (≈ 3.45 µM)	> 100 µg/mL	12.5 µg/mL (≈ 13.9 µM)	25 µg/mL (≈ 27.8 µM)	> 100 µg/mL	> 100 µg/mL	–	>100.0 (100.0) µg/ml	12.5 µg/mL	Partial Inhibition, Blastomyces dermatidis D40 [14]: 12.5 µg/mL; Partial Inhibition, Aspergillus fumigatus IAM2034 [15]: 50.0 µg/mL
CCOC(=O)CN(C)[C@@H]1[C@H](O[C@@H]2OC[C@@H](O)[C@H](O)[C@H]2O)[C@@H](O)[C@H](O[C@H]2c3cc(C)c(C(=O)N[C@H](C)C(=O)O)c(O)c3-c3c(cc4c(c3O)C(=O)c3cc(OC)cc(O)c3C4=O)[C@@H]2O)O[C@@H]1C [Ex. 3, N-(ethoxycarbonylmethyl) pradimicin A]	> 100 µg/mL	50.0 µg/mL	11 mg/mL (≈ 11900 µM)	18 mg/kg	6.3 µg/mL (≈ 6.8 µM)	> 100 µg/mL	> 100 µg/mL	> 100 µg/mL	50 µg/mL (≈ 53.9 µM)	25 µg/mL (≈ 27 µM)	25 µg/mL (≈ 27 µM)	6.3 µg/mL (≈ 6.8 µM)	> 100 µg/mL	50 µg/mL (≈ 53.9 µM)	100 µg/mL (≈ 108 µM)	> 100 µg/mL	> 100 µg/mL	–	>100.0 (100.0) µg/ml	12.5 µg/mL	Partial Inhibition, Aspergillus fumigatus IAM2530 [13, 17]: 25.0 µg/mL; Partial Inhibition, Blastomyces dermatidis D40 [14]: 12.5 µg/mL; Partial Inhibition, Aspergillus fumigatus IAM2034 [15]: >100.0 (100.0) µg/ml
COc1cc(O)c2c(c1)C(=O)c1c(cc3c(c1O)-c1c(cc(C)c(C(=O)N[C@H](C)C(=O)O)c1O)[C@H](O[C@@H]1O[C@H](C)[C@H](N(C)C(=O)CN)[C@H](O[C@@H]4OC[C@@H](O)[C@H](O)[C@H]4O)[C@H]1O)[C@H]3O)C2=O [Ex. 10, N-glycyl pradimicin A]	> 100 µg/mL	–	–	30 mg/kg	1.6 µg/mL (≈ 1.78 µM)	> 100 µg/mL	> 100 µg/mL	12.5 µg/mL (≈ 13.9 µM)	12.5 µg/mL (≈ 13.9 µM)	12.5 µg/mL (≈ 13.9 µM)	6.3 µg/mL (≈ 7.02 µM)	1.6 µg/mL (≈ 1.78 µM)	–	12.5 µg/mL (≈ 13.9 µM)	12.5 µg/mL (≈ 13.9 µM)	100 µg/mL (≈ 111 µM)	12.5 µg/mL (≈ 13.9 µM)	1 mg/mL (≈ 1110 µM)	–	–	–
